Assay results published in PubChem BioAssay AID624436 (The Scripps Research Institute Molecular Screening Center, 2012).
Active and inactive are the calls of the source.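 How the source made its calls: active means no compound was called active, only the inactive limit is stated; inactive means inhibition below 30% at 50 µM.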

Molecular target: Serine/threonine-protein phosphatase PP1-alpha catalytic subunit (Homo sapiens) (UniProt P62136)
Experiment: inhibitors of PP1 catalytic subunit activity – biochemical, OMFP substrate, fluorescence, powder samples, round 5, selectivity assay for PP5 inhibitor project, late-stage follow-up (AID 624436)
Conditions: purified PP1alpha, OMFP dephosphorylation fluorescence; at 50 µM; stronger effect = higher value

Sequence of Serine/threonine-protein phosphatase PP1-alpha catalytic subunit (Homo sapiens) (P62136 whole entry, looked up): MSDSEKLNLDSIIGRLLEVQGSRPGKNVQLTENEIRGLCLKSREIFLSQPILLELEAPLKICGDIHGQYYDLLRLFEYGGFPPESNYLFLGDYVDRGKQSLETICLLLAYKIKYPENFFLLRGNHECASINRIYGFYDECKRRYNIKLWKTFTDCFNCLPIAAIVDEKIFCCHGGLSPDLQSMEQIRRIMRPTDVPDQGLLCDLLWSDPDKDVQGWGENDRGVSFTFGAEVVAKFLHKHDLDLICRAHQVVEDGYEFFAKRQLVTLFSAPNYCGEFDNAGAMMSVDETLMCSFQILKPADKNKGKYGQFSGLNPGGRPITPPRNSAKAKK

inhibition, inactive:
CCc1ccccc1-c1n[nH]nc1C(=O)O 2.41%, O=C(O)c1[nH]ccc1-c1ccccc1 4.43%, CCOc1ccccc1-c1n[nH]nc1C(=O)O 15.5%, CC(C)Oc1ccccc1-c1n[nH]nc1C(=O)O 9.97%, O=C(O)c1n[nH]nc1-c1ccccc1-c1ccccc1 0.415%, CC(C)c1ccccc1-c1n[nH]nc1C(=O)O 3.75%, O=C(O)c1n[nH]nc1-c1ccccn1 8.42%, Cc1cccc(C)c1-c1n[nH]nc1C(=O)O 6.84%, Cc1ccccc1-c1n[nH]nc1C(=O)O 10.4%, O=C(O)c1n[nH]nc1-c1cccnc1 1.43%, O=C(O)c1n[nH]nc1-c1ccccc1C(F)(F)F 7%
